Reference: patent EP0392802A2, “Preparation of urea analogues and their use in bronchial, cerebrovascular and neuronal disorders” (Beecham Group p.l.c., priority 1989, dated 1990)

Tested on: guinea pig tracheal spiral preparations
Assay: Bronchodilation in vitro; guinea pig tracheal spiral preparations (relaxation of resting tension relative to isoprenaline)
Settings: fall in tension as percentage of total relaxation evoked by 10⁻³M isoprenaline; cumulative dosing 10⁻⁸-2x10⁻⁵M; resting tension 2g; krebs solution at 37°C; read-out: IC₅₀
Description: Male guinea pigs (300-600g) were stunned by a blow to the head and bled from the carotid artery. The trachea was exposed, dissected free of connective tissue, and transferred to oxygenated krebs solution at 37 °C. Next, spirals (2 per trachea) were prepared by cutting the whole trachea spirally along its longitudinal axis and then dividing this spiral lengthwise. Each preparation was mounted, using silk thread, in a 10ml organ bath filled with krebs solution at 37 °C and bubbled with 5% CO₂ with O₂. The resting tension of the preparations was set at 2g and changes in muscle tension were monitored isometrically by means of a UFI (2oz) force and displacement transducer (Ormed Ltd) connected to a Linseis pen recorder. All preparations were allowed to equilibrate for 60 minutes. During this equilibration period the preparations were washed by upward displacement at 15 minute intervals and, if necessary, the resting tension was readjusted to 2g using a mechanical micromanipulator system.
Once a steady resting tension had been obtained, the preparations were dosed cumulatively with the test compound (10⁻⁸-2x10⁻⁵M), and finally a maximum relaxation achieved by addition of 10⁻³M isoprenaline.
The fall in tension evoked by the test compound was expressed as a percentage of the total relaxation evoked in the presence of 10⁻³M isoprenaline. […]

`CC(NC(=S)Nc1ccc(F)cc1)C(C)(C)C` (racemic) [Example 3, (±)-N-4-Fluorophenyl-N′-1,2,2-trimethylprop-1-ylthiourea] gave an IC50 of 5.9 µM.

`CC(NC(=NC#N)Nc1ccc(C#N)cc1)C(C)(C)C` (racemic) [Example 4, (±)-N˝-Cyano-N-4-cyanophenyl-N′-1,2,2-trimethylprop-1-ylquanidine] gave an IC50 of 3 µM.
